The text below walks through data of US10654890B2, “Cyclic peptide derivative, method for preparing same and composition thereof” (priority 2014, dated 2020).

The test relates to culture astrocyte. Nature of the test: Astrocyte proliferative activity test (BrdU cell proliferation ELISA). It counts as cell-based, mouse. As for the experimental part:
A pregnant ICR female mouse was purchased from Japan SLC, Inc., and a neonatal mouse 24 to 48 after birth was used for the test.
A neonatal ICR mouse (24 to 48 after birth) was sufficiently sterilized with 70% ethanol, immersed in 30 ml of PBS (−) in a 100 mm dish (diameter of 100 mm, Orange Scientific) for cell culture, and then placed in a clean bench. The neonatal mouse was subjected to cervical dislocation using tweezers and euthanized. Head of the neonatal mouse was open and the entire brain was removed. The obtained brain was transferred to a 100 mm dish for cell culture in which 15 ml of high glucose Dulbecco's modified Eagle medium (HG-D-MEM, Wako Pure Chemical Industries, Ltd.) is added. By using tweezers, the olfactory bulb, median eminence, and meninges were removed in the medium to obtain only a cerebrum having hippocampus. Subsequently, the obtained cerebrum was transferred to a 100 mm dish for cell culture added with 10 ml of HG-D-MEM, and using a scalpel, the cerebrum was finely cut to be 1 mm^2 or less. The cerebrum after cutting was transferred, together with the medium, to a 50 ml conical tube (TPP), and after allowing it to stand for 2 minutes, the supernatant was removed. Subsequently, the cerebrum after cutting was added with 4 ml of fresh HG-D-MEM, and after further adding 400 μl of 2.5% trypsin (SIGMA) and 40 μl of 1% DNase I (SIGMA), the cerebrum was incubated in a water bath at 37° C. for 10 minutes under intermittent stirring. Subsequently, to the cerebrum after cutting, 10 ml of HG-D-MEM (10% FBS) was added to terminate the reaction of trypsin followed by centrifuge for 3 minutes at 1,000×g using a centrifuge (H-9R, KOKUSAN Co., Ltd.). The supernatant was collected by an electric pipette, 10 ml of HG-D-MEM (10% FBS) was added to a precipitated cell mass, and pipetting using a sterile pipette was carried out several times until the cell mass is not observed. To remove the remaining cell mass from this cell dispersion, the cell dispersion was passed through a cell strainer (pore diameter of 100 μm, BD Falcon™), and the number of cells in the cell dispersion which has passed through the cell strainer was counted by using a cell counting plate. An adjustment was made with HG-D-MEM (10% FBS) such that the number of cells is 6.0×10^5 cells/ml. After the adjustment of the number of cells, the cell dispersion was seeded, in an amount of 7 ml for each, to a Poly-D-Lysine Cellware 100 mm Dish (PDL 100 mm dish, BD Falcon™). 96 Hours after the seeding, the medium was removed once using an aspirator, and after briefly washing the inside of a 100 mm PDL dish with 10 ml of PBS (−), the medium exchange was carried out by newly adding 7 ml of HG-D-MEM. The above method and the astrocyte preparation described below were carried out based on the method of McCarthy and de Vellis (1980, Non Patent Literature 30).
72 Hours after the medium exchange, the 100 mm PDL dish seeded with the cell broth was removed from the incubator, and tightly covered using a parafilm and fixed by overlaying 3 to 4 dishes. The resultant was cultured by shaking using a bioshaker (MULTI SHAKER MMS, INCUBATOR FMS/EYELA) under a condition including 37° C., 100 rpm, and 20 hours, and the neuronal cells, cell debris, dead cells or the like were liberated. At that time, in the inside the 100 mm PDL dish, only the astrocyte as a glial cell in central nervous system other than neuron was adhered (hereinbelow, described as culture astrocyte). After the shaking, the 100 mm PDL dish was transferred to a clean bench, the supernatant was removed by an aspirator and washed with 10 ml of PBS (−), and after adding 1 ml of 2.5% trypsin (SIGMA) using a Pasteur pipette, the dish was left to stand in an incubator for 10 minutes. The 100 mm PDL dish was again brought back to the clean bench, and added with 10 ml of Dulbecco's modified Eagle medium (D-MEM, Wako Pure Chemical Industries, Ltd.) (10% FBS). […]
A general note: An ELISA detects its analyte on a solid surface through an enzyme-linked reagent.

In the case of `CNC(=O)Oc1ccc2c(c1)[C@]1(C)CCN(C)[C@@H]1N2C` [eserin, reference compound], the astrocyte proliferative activity entry (25 μM, FIG. 8 and FIG. 9) is listed as “no significant astrocyte proliferative activity was observed”.
Consider `NS(=O)(=O)Cc1noc2ccccc12` [zonisamide, reference compound], for which the astrocyte proliferation entry (100 μM, FIG. 7) was “hardly observed”.
